Results published in patent US7223767B2, “Tetrahydroquinazolines and dihydrocyclopentapyrimidines as CRF antagonists” (Roche Palo Alto LLC, priority 2003, dated 2007).
Counter-ions that a name gives are not always drawn.

Biological target: T1, CRF1 receptor (Homo sapiens, UniProt P34998)
T1 construct: Cell membranes are prepared according the method of Dieterich and DeSouza (1996); endogenous in cells; host or cells: IMR-32 human neuroblastoma cells (membranes)
T1 sequence (P34998 24-415): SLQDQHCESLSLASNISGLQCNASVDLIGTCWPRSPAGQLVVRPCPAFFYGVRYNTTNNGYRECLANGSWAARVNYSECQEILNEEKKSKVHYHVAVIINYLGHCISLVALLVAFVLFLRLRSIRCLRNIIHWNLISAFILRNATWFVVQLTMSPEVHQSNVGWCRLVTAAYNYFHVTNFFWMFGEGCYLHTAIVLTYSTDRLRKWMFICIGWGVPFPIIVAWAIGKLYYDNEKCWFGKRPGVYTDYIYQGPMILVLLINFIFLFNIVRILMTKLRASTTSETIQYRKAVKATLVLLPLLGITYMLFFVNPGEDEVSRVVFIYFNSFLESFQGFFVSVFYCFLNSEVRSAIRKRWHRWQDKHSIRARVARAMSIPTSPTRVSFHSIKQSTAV
Assay: CRF1 Receptor Binding Assay (competition binding, IMR-32 cell membranes)
Details: CRF1 affinity; [125I]Tyr0-ovine CRF, human IMR-32 neuroblastoma cell membranes
Description: Human IMR-32 neuroblastoma cells are grown to 80% confluence in MEM medium containing 10% heat-inactivated FBS, 1 mM Sodium Pyruvate, and 0.1 mM nonessential amino acids. Cell membranes are prepared according the method of Dieterich and DeSouza (1996). The cells (˜5E+9) are resuspended in 10 volumes of wash buffer (5 mM Tris HCl, 10 mM MgCl2, 2 mM EGTA, pH 7.4 at RT), homogenized with a Polytron, and then centrifuged at 45,000 G for 20 min at 4° C. The membrane pellets are washed twice with wash buffer (45,000 G for 20 min at 4° C.) and then resuspended (50 mM Tris HCl, 10 mM MgCl2, 2 mM EGTA, pH 7.4 at RT). Protein concentration is determined using Pierce reagents and BSA as standard. Aliquots of 1-1.5 mL are stored at −80° C. until binding assay.
The competition binding assay is performed in a final volume of 250 μl which contains assay buffer (50 mM Tris-HCl, 10 MM MgCl2, 2 mM EGTA, 0.2% BSA, 0.1 mM bacitracin and 100 kIU/mL aprotinin pH 7.2 at R.T.), 0.05 nM [^125I]Tyr^0-ovine CRF (Du Pont New England Nuclear), 50 μg of membrane protein, and test compound at various concentrations. Non-specific binding is determined with 1 μM hCRF. Binding reactions are terminated after 2 hr incubation at 25° C. by filtering through 96-w GF/C filter plate using a Packard Harvester (Filtermate 196). The 96-w filter plate is pre-treated with 0.3% polyethyleneimine and pre-washed with washing buffer (50 mM Tris-HCl, 10 mM MgCl2, 2 mM EGTA, 0.2% BSA, pH 7.2 at 4° C.). Unbound radioactivity is removed by four rapid washes (0.8 ml/well) with wash buffer. The radioactivity is quantified using a Packard TopCount. Data are analyzed using non-linear iterative curve fitting to obtain IC50 and Hill slope values. PKi values are derived from pIC50 values (−log of IC50).

Row | SMILES | IC50 [nM]
1 | CCCN(CC1CC1)c1nc(C)nc2c1CCCC2(C)c1ccc(Cl)cc1 (stereo not drawn) [Compound 4, [8-(4-chloro-phenyl)-2,8-dimethyl-5,6,7,8-tetra-hydro-quinazolin-4-yl]-cyclopropylmethyl-pro-pyl-amine] | 1740
2 | CCCN(CC1CC1)c1nc(C)nc2c1CCC[C@@]2(C)c1ccccc1 [Compound 2, Cyclopropylmethyl-((S)-2,8-dimethyl-8-phenyl-5,6,7,8-tetra-hydro-quinazolin-4-yl)-propyl-amine] | 525
3 | CCCN(CC1CC1)c1nc(C)nc2c1CCCC2c1ccccc1 (stereo not drawn) [Compound 1, Cyclopropylmethyl-(2-methyl-8-phenyl-5,6,7,8-tetra-hydro-quinazolin-4-yl)-propyl-amine] | 2820
4 | CCCN(CC1CC1)c1nc(C)nc2c1CCCC2c1ccc(Cl)cc1 (stereo not drawn) [Compound 3, [8-(4-Chloro-phenyl)-2-methyl-5,6,7,8-tetrahydro-quina-zolin-4-yl]-cyclopropylmethyl-propyl-amine] | 2340

Second part, the compound after the results:

Row | IC50 [nM] | SMILES
5 | 28800 | COCCN(CCOC)c1nc(C)nc2c1CCCC2c1ccc(Cl)cc1 (stereo not drawn) [Compound 5, [8-(4-Chloro-phenyl)-2-methyl-5,6,7,8-tetrahydro-quina-zolin-4-yl]-bis-(2-methoxy-ethyl)-amine]
6 | 1120 | CCCN(CC1CC1)c1nc(C)nc2c1CCC2c1ccc(C)cc1C (stereo not drawn) [Compound 9, Cyclopropylmethyl-[7-(2,4-dimethyl-phenyl)-2-meth-yl-6,7-dihydro-5H-cyclopentapyrimidin-4-yl]-pro-pyl-amine]
7 | 661 | CCCN(CC1CC1)c1nc(C)nc2c1CCC2(C)c1ccc(C)cc1C (stereo not drawn) [Compound 10, Cyclopropylmethyl-[7-(2,4-dimethyl-phenyl)-2,7-di-methyl-6,7-dihydro-5H-cyclopentapyrimidin-4-yl]-pro-pyl-amine]
8 | 11700 | COCCN(CCOC)c1nc(C)nc2c1CCCC2(C)c1ccc(Cl)cc1 (stereo not drawn) [Compound 6, [8-(4-Chloro-phenyl)-2,8-dimethyl-5,6,7,8-tetra-hydro-quinazolin-4-yl]-bis-(2-methoxy-ethyl)-a-mine]

Tested on: not given
Assay: not given
Details: not given

Row | SMILES | melting point [°C]
9 | CCCC1(CCC)CCCc2c(Nc3ccc(Cl)cc3Cl)nc(C)nc21 (as salt: hydrochloride) [Compound 11, (2,4-Dichloro-phenyl)-(2-methyl-8,8-dipropyl-5,6,7,8-tetra-hydro-quinazolin-4-yl)-amine] | 238.3 to 243.9
